Measurements from ChEMBL document CHEMBL1127187, “Semisynthetic modification of hygromycin A. 2. synthesis and antibacterial activity of aryl analogs” (1993).
In brackets after ≈: the same amount, converted by molar mass.

Columns and labels:
Type in all cases: functional
[1] = test system: Brachyspira hyodysenteriae; assay: Antibacterial activity against Serpulina (Treponema) hyodysenteriae (the causative organism of swine dysentery).
Pasteurella multocida = assay: Antibacterial activity against Pasteurella multocida (an important animal respiratory pathogen).
[2] = test system: Brachyspira hyodysenteriae; assay: Compound was tested for antibacterial activity against Serpulina (Treponema hyodysenteriae (the causative organism of swine dysentery)

SMILES	MIC [1] [µg/mL]	MIC (Pasteurella multocida) [µg/mL]	MIC [2] [µg/mL]
C=CCOc1c(C)cc(/C=C(/C)C(=O)N[C@@H]2[C@H](O)[C@@H](O)[C@H]3OCO[C@H]3[C@@H]2O)cc1C	> 200	> 200	
C=CCOc1c(F)cc(/C=C(/C)C(=O)N[C@@H]2[C@H](O)[C@@H](O)[C@H]3OCO[C@H]3[C@@H]2O)cc1F	25 (≈ 58.5 µM)	> 200	
C=CCOc1ccc(/C=C(/C)C(=O)N[C@@H]2[C@H](O)[C@@H](O)[C@H]3OCO[C@H]3[C@@H]2O)cc1Br	12.5 (≈ 26.6 µM)	> 200	
C=CCOc1ccc(/C=C(/C)C(=O)N[C@@H]2[C@H](O)[C@@H](O)[C@H]3OCO[C@H]3[C@@H]2O)cc1O		0.78 (≈ 1.91 µM)	0.78 (≈ 1.91 µM)
C=CCOc1ccc(/C=C(/C)C(=O)N[C@@H]2[C@H](O)[C@@H](O)[C@H]3OCO[C@H]3[C@@H]2O)cc1NC(C)=O	> 200	> 200	
C=CCOc1ccc(/C=C(/C)C(=O)N[C@@H]2[C@H](O)[C@@H](O)[C@H]3OCO[C@H]3[C@@H]2O)cc1NS(C)(=O)=O	> 200	> 200	
C=CCOc1c(O)cc(/C=C(/C)C(=O)N[C@@H]2[C@H](O)[C@@H](O)[C@H]3OCO[C@H]3[C@@H]2O)cc1Br	> 200	> 200	
C=CCOc1ccc(/C=C(/C)C(=O)N[C@@H]2[C@H](O)[C@@H](O)[C@H]3OCO[C@H]3[C@@H]2O)cc1F	1.56 (≈ 3.81 µM)	50 (≈ 122 µM)	
C=CCOc1ccc(/C=C(/C)C(=O)N[C@@H]2[C@H](O)[C@@H](O)[C@H]3OCO[C@H]3[C@@H]2O)cc1N	0.78 (≈ 1.92 µM)	0.78 (≈ 1.92 µM)	
C=CCOc1c(O)cc(/C=C(/C)C(=O)N[C@@H]2[C@H](O)[C@@H](O)[C@H]3OCOC3[C@@H]2O)cc1OC (single isomer, unassigned)	> 200	> 200	
C=CCOc1ccc(/C=C(/C)C(=O)N[C@@H]2[C@H](O)[C@@H](O)[C@H]3OCO[C@H]3[C@@H]2O)cc1Cl	3.13 (≈ 7.35 µM)		
C=CCOc1ccc(/C=C(/C)C(=O)N[C@@H]2[C@H](O)[C@@H](O)[C@H]3OCO[C@H]3[C@@H]2O)cc1C(=O)O	> 200	> 200	
C=CCOc1ccc(/C=C(\C)C(=O)N[C@@H]2[C@H](O)[C@@H](O)[C@H]3OCO[C@H]3[C@@H]2O)c(OC)c1	> 200	> 200	
C=CCOc1cc(F)c(/C=C(/C)C(=O)N[C@@H]2[C@H](O)[C@@H](O)[C@H]3OCO[C@H]3[C@@H]2O)cc1F	1.56 (≈ 3.65 µM)	25 (≈ 58.5 µM)	
C=CCOc1ccc(/C=C(/C)C(=O)N[C@@H]2[C@H](O)[C@@H](O)[C@H]3OCO[C@H]3[C@@H]2O)cc1C	6.25 (≈ 15.4 µM)	50 (≈ 123 µM)	
CC(=O)[C@H]1O[C@@H](Oc2ccc(C=C(C)C(=O)N[C@@H]3[C@H](O)[C@@H](O)[C@H]4OCO[C@H]4[C@@H]3O)cc2O)[C@@H](O)[C@@H]1O [HYGROMYCIN A]	0.78 (≈ 1.52 µM)	0.78 (≈ 1.52 µM)	
C=CCOc1ccc(/C=C(\C)C(=O)N[C@@H]2[C@H](O)[C@@H](O)[C@H]3OCO[C@H]3[C@@H]2O)c(Cl)c1	> 200	> 200	
C=CCOc1ccc(/C=C(\C)C(=O)N[C@@H]2[C@H](O)[C@@H](O)[C@H]3OCO[C@H]3[C@@H]2O)c(F)c1F	25 (≈ 58.5 µM)	> 200	
C=CCOc1ccc(/C=C(/C)C(=O)N[C@@H]2[C@H](O)[C@@H](O)[C@H]3OCO[C@H]3[C@@H]2O)cc1	6.25 (≈ 16 µM)	50 (≈ 128 µM)	
C=CCOc1c(Br)cc(/C=C(/C)C(=O)N[C@@H]2[C@H](O)[C@@H](O)[C@H]3OCO[C@H]3[C@@H]2O)cc1Br	> 200	> 200	
C=CCOc1ccc(/C=C(/C)C(=O)N[C@@H]2[C@H](O)[C@@H](O)[C@H]3OCO[C@H]3[C@@H]2O)cc1OC	> 200	> 200	
C=CCOc1ccc(/C=C(/C)C(=O)N[C@@H]2[C@H](O)[C@@H](O)[C@H]3OCO[C@H]3[C@@H]2O)cc1NC	> 200	> 200	
C=CCOc1ccc(/C=C(/C)C(=O)N[C@@H]2[C@H](O)[C@@H](O)[C@H]3OCO[C@H]3[C@@H]2O)cc1I	100 (≈ 193 µM)		
C=CCOc1ccc(/C=C(\C)C(=O)N[C@@H]2[C@H](O)[C@@H](O)[C@H]3OCO[C@H]3[C@@H]2O)cc1CNCC		> 200	
C=CCOc1ccc(/C=C(\C)C(=O)N[C@@H]2[C@H](O)[C@@H](O)[C@H]3OCO[C@H]3[C@@H]2O)c(F)c1	3.13 (≈ 7.65 µM)	25 (≈ 61.1 µM)	
C=CCOc1c(F)cc(/C=C(\C)C(=O)N[C@@H]2[C@H](O)[C@@H](O)[C@H]3OCO[C@H]3[C@@H]2O)c(F)c1O	50 (≈ 113 µM)	100 (≈ 226 µM)	
C=CCOc1ccc(/C=C(/C)C(=O)N[C@@H]2[C@H](O)[C@@H](O)[C@H]3OCO[C@H]3[C@@H]2O)cc1CO		100 (≈ 237 µM)	
C=CCOc1c(O)cc(/C=C(/C)C(=O)N[C@@H]2[C@H](O)[C@@H](O)[C@H]3OCO[C@H]3[C@@H]2O)cc1C#N	> 200	> 200	
